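Compound exposure: 48 hours, 5 concentrations, 96-well plates. TGI: concentration producing complete growth inhibition.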
Experiments:
Assay in all cases: NCI tumour cell line growth inhibition, 48 h
[1] = tested on: CAKI-1 renal
[2] = tested on: HT29 colon
[3] = tested on: NCI/ADR-RES ovarian
[4] = tested on: T-47D breast
[5] = tested on: OVCAR-4 ovarian

SMILES | TGI [1] [µM] | TGI [2] [µM] | TGI [3] [µM] | TGI [4] [µM] | TGI [5] [µM]
Cc1cccc(C(O)c2ccccn2)c1O (stereo not given) | > 100 | > 100 | > 100 | > 100 | –
O=C1NCN(c2ccccc2)C12CCN(CCCSc1ccc(F)cc1)CC2 | > 91.9 | 19.4 | > 100 | > 100 | > 96.6
Cc1c(C)c2ccc(O)cc2[nH]c1=O | > 100 | > 100 | > 100 | > 100 | > 100
c1ccc(-c2cc(-c3cc(-c4ccccc4)no3)on2)cc1 | > 100 | > 100 | > 100 | > 100 | 85.9
N=C(N)c1ccc(-c2ccc(-c3ccc(C(=N)N)cc3)o2)cc1 | > 100 | > 100 | > 100 | 74.9 | > 100
CCNC(=O)Cc1nc2c(=O)[nH]cnc2n1C1OC(CO)C(O)C1O (stereo not given) | > 100 | > 100 | > 100 | > 100 | > 100
CCOC(=O)C1C(=O)CC(C)(O)C(C(=O)OCC)C1c1ccc(OC)cc1 (stereo not given) | > 100 | > 100 | > 100 | > 100 | > 100
[O-][n+]1onc2c1-c1nonc1CC2 | > 100 | > 100 | > 100 | > 100 | 74.1
CN(C)N1C(=O)CC2(CCN(CCCC(=O)c3ccc(F)cc3)CC2)C1=O | > 100 | > 100 | > 100 | > 100 | –
O=C(NC1CCN(Cc2ccccc2)CC1)c1ccccc1I | > 100 | 34.8 | 92.3 | 66.1 | > 100
C(=N/Nc1ccccn1)/c1cccnc1 | > 100 | > 100 | > 100 | > 100 | > 100
CC(C)[C@H](NC(=O)[C@@H](O)[C@H](N)Cc1ccccc1)C(=O)N[C@@H](Cc1ccccc1)C(=O)O | > 100 | – | > 100 | > 100 | > 100
Nc1nc(Cl)nc2c1ncn2C1CCC(CO)O1 (stereo not given) | > 100 | > 100 | > 100 | > 100 | > 100
Cc1cc2nc3c(C#N)c(-c4ccccc4)cc(Nc4cccc(C(F)(F)F)c4)n3c2cc1C | 40.2 | – | 20.2 | > 100 | 50.5
C=C1C(=O)O[C@H]2[C@H]3O[C@@H](C[C@@H]12)[C@](C)(O)CCCC(C)=CCC[C@H]3C | 28.5 | 26.7 | 22.7 | 44.6 | 39
Nc1nc(Cl)cc(NCC2(CO)CCC(OCc3ccccc3)C2)n1 (stereo not given) | 45.1 | 34 | 25 | 52.7 | 65.2

SMILES | TGI [1] [µM] | TGI [2] [µM] | TGI [3] [µM] | TGI [4] [µM] | TGI [5] [µM]
CCOC(=O)C(SCCO)C(C(=O)OCC)n1cc(C)c(=O)[nH]c1=O (stereo not given) | 18.2 | 32.2 | > 86.6 | > 100 | > 74.7
CC(C)(Cc1ccccc1)Cc1cc(O)ccc1O | 35.1 | 48.5 | 42.9 | 23.1 | 91.9
Cn1c(=O)c2c(nc3sc4ncccc4c(=O)n32)n(C)c1=O | > 100 | > 100 | > 100 | > 100 | > 100
CC[C@]12C=CCN3CCC4(c5cc(N=Nc6ccc([N+](=O)[O-])cc6)c(OC)cc5N(C)[C@H]4[C@@](O)(C(=O)OC)[C@@H]1OC(C)=O)[C@@H]32 (stereo not given in full) | 50 | 23.9 | 42.2 | > 100 | > 100
CCC1CCN=C(Cn2cc(C)c(=O)[nH]c2=O)N1 (stereo not given) | – | > 100 | > 100 | > 100 | –
CCC(CCCCC1CC[C@H]2CC(=O)C[C@@H]12)OC (stereo not given in full) | > 100 | > 100 | > 100 | > 100 | > 100
CCC(C)(C)c1ccc(Oc2cccc(C(=O)O)c2)cc1 | > 100 | > 100 | > 100 | > 100 | > 100
CC1(CC(=O)OC(C#C[Si](C)(C)C)Cc2ccccc2)OCCO1 (stereo not given) | > 100 | > 100 | > 100 | > 100 | > 100
N=c1c2ccccc2nc2oc3ccc(Cl)cc3n12 | 37.5 | > 100 | > 100 | – | 13.1
O=C1/C(=C/c2cccc([N+](=O)[O-])c2)N=C(c2ccccc2)N1c1ccc2c(c1)Sc1cc(N3C(=O)/C(=C/c4cccc([N+](=O)[O-])c4)N=C3c3ccccc3)ccc1N2 | 54 | > 100 | > 100 | 80 | 34.5
CN(CCNC(=O)c1cc(-c2ccccc2)nc2ccccc12)CCNC(=O)c1cc(-c2ccccc2)nc2ccccc12 | > 100 | 4.74 | > 100 | > 100 | > 100
COc1cc(C2SC(N)=Nc3c2c(C)nn3C(=O)Cc2ccccc2)ccc1O (stereo not given) | > 100 | > 100 | – | > 100 | –
CC(C)(C)C1=NN=C2c3ccccc3C(=O)C21 (stereo not given) | > 100 | > 100 | > 100 | > 100 | > 100
COc1ccc(-n2nnnc2C2(Nc3ccccc3)CCN(Cc3ccccc3)CC2)cc1 | – | 21.3 | 51 | 45.2 | > 100
C/C(=C\[C@H]1C[C@@H]([C@@H]2CC[C@]34C[C@]23C=C[C@@H]2[C@@]3(C)CC=C5C[C@@H](c6ccccc6)OC[C@]5(C)[C@@H]3C[C@@H](O)[C@]24C)C(=O)O1)CO | 28.3 | 7.85 | > 100 | > 100 | > 62.7
